These results are taken from patent US9540377B2, “2,6,7,8 substituted purines as HDM2 inhibitors” (Merck Sharp & Dohme Corp., priority 2013, dated 2017).

In one assay the target is HDM2 (truncated, residues 17 to 125, containing p53 binding surface) (Homo sapiens (Human), UniProt Q00987). Nature of the assay: HDM2 FRET assay (inhibition of binding of FITC labeled p53-site peptide to HDM2). The note with it: Table 16. The text has this: IC50 DETERMINATIONS: Dose-response curves were plotted from the inhibition data, from 10 point serial dilutions of inhibitory compounds. Concentration of compound was plotted against em520/Cem495 ratio signal. To generate IC50 values, the dose-response curves were fitted to a standard sigmoidal curve and IC50 values were derived by nonlinear regression analysis.
HDM2 (truncated, residues 17 to 125, containing p53 binding surface), sequence (Q00987 17-125): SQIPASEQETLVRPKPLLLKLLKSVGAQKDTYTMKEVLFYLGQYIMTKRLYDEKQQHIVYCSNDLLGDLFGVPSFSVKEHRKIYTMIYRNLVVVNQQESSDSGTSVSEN
`C[C@H]1CC[C@H](Cn2c(N3CCOC4CCCCC43)nc3nc(-c4noc(=O)[nH]4)nc(-c4cccc(Cl)c4)c32)CC1` (single isomer, unassigned) [Example 16.77, 3-(6-(3-chlorophenyl)-7-[(trans-4-methylcyclohexyl)methyl]-8-(octahydro-4H-1,4-benzoxazin-4-yl)-7H-purin-2-yl]-1,2,4-oxadiazol-5(4H)-one]: the concentration for half-maximal inhibition (IC50) (as a rule, the concentration that inhibits the measured activity by half) turned out to be 29.7 nM. Regarding `COC(C)(C)C1CCCN1c1nc2nc(-c3n[nH]c(=O)o3)nc(-c3cccc(Cl)c3)c2n1C[C@H]1CC[C@H](C)CC1` (single isomer, unassigned) [Example 16.70, 5-{6-(3-chlorophenyl)-8-[2-(1-methoxy-1-methylethyl)pyrrolidin-1-yl]-7-[(trans-4-methylcyclohexyl)methyl]-7H-purin-2-yl}-1,3,4-oxadiazol-2(3H)-one], the half-inhibitory concentration (IC50) was 2.29 nM. The same measure, in the same setting: next, `Cc1noc(C2CCCN2c2nc3nc(-c4n[nH]c(=O)o4)nc(-c4cncc(Cl)c4)c3n2C[C@H]2CC[C@H](C)CC2)n1` (mixture of isomers) [Example 16.146, 5-{6-(5-chloropyridin-3-yl)-7-[(trans-4-methylcyclohexyl)methyl]-8-[2-(3-methyl-1,2,4-oxadiazol-5-yl)pyrrolidin-1-yl]-7H-purin-2-yl}-1,3,4-oxadiazol-2(3H)-one]: 3.04 nM; `CO[C@H]1CCN(c2nc3nc(-c4n[nH]c(=O)o4)nc(-c4cncc(Cl)c4)c3n2C[C@H]2CC[C@H](C)CC2)[C@@H](C)C1` (racemic) [Example 16.154, 5-{6-(5-chloropyridin-3-yl)-8-[(cis)-4-methoxy-2-methylpiperidin-1-yl]-7-[(trans-4-methylcyclohexyl)methyl]-7H-purin-2-yl}-1,3,4-oxadiazol-2(3H)-one]: 67.2 nM. Same read-out and setting: for `Cc1ncc(Cl)cc1-c1nc(-c2noc(=O)[nH]2)nc2nc(N3CCO[C@@H]4CCC[C@H]43)n(C[C@H]3CC[C@H](C)CC3)c12` (racemic) [Example 16.164, 3-{6-(5-chloro-2-methylpyridin-3-yl)-8-[(trans)-hexahydrocyclopenta [b][1,4]oxazin-4(4aH)-yl]-7-[(trans-4-methylcyclohexyl)methyl]-7H-purin-2-yl}-1,2,4-oxadiazol-5(4H)-one] the value was 2.09 nM; for `COC(C)(C)C1CCCN1c1nc2nc(-c3n[nH]c(=O)o3)nc(-c3cccc(Cl)c3)c2n1C[C@H]1CC[C@H](C)CC1` (single isomer, unassigned) [Example 16.71, 5-{6-(3-chlorophenyl)-8-[2-(1-methoxy-1-methylethyl)pyrrolidin-1-yl]-7-[(trans-4-methylcyclohexyl)methyl]-7H-purin-2-yl}-1,3,4-oxadiazol-2(3H)-one], 2.47 nM.

Take `CO[C@@H]1CCN(c2nc3nc(-c4n[nH]c(=O)o4)nc(-c4cncc(Cl)c4)c3n2C[C@H]2CC[C@H](C)CC2)[C@@H](C)C1` (racemic) [Example 16.155, 5-{6-(5-chloropyridin-3-yl)-8-[(trans)-4-methoxy-2-methylpiperidin-1-yl]-7-[(trans-4-methylcyclohexyl)methyl]-7H-purin-2-yl}-1,3,4-oxadiazol-2(3H)-one]: the half-inhibitory concentration (IC50) is 49.1 nM. On the same count and under the same terms, next, `C[C@H]1CC[C@H](Cn2c(N3CCCC4COCCC43)nc3nc(-c4n[nH]c(=O)o4)nc(-c4cccc(Cl)c4)c32)CC1` (single isomer, unassigned) [Example 16.125, 5-{6-(3-chlorophenyl)-8-(hexahydro-2H-pyrano[4,3-b]pyridin-1(5H)-yl)-7-[(trans-4-methylcyclohexyl)methyl]-7H-purin-2-yl}-1,3,4-oxadiazol-2(3H)-one]: 56.7 nM; `COC(C)(C)C1CCCN1c1nc2nc(-c3noc(=O)[nH]3)nc(-c3cncc(Cl)c3)c2n1C[C@H]1CC[C@H](C)CC1` (single isomer, unassigned) [Example 16.72, 3-{6-(5-chloropyridin-3-yl)-8-[2-(1-methoxy-1-methylethyl)pyrrolidin-1-yl]-7-[(trans-4-methylcyclohexyl)methyl]-7H-purin-2-yl}-1,2,4-oxadiazol-5(4H)-one]: 0.985 nM.

The assay is the same for the next values; noted with them: Table 23.
As for `COC(c1nc2nc(-c3n[nH]c(=O)o3)nc(-c3cccc(Cl)c3)c2n1C[C@H]1CC[C@H](C)CC1)C1CCOCC1` (mixture of isomers) [Example 23.16, 5-{6-(3-chlorophenyl)-8-[methoxy(tetrahydro-2H-pyran-4-yl)methyl]-7-[(trans-4-methylcyclohexyl)methyl]-7H-purin-2-yl}-1,3,4-oxadiazol-2(3H)-one], the IC50 amounted to 12.3 nM. Still for that read-out and setting: next, `CC(F)(c1c(F)cccc1F)c1nc2nc(-c3noc(=O)[nH]3)nc(-c3cncc(Cl)c3)c2n1C[C@H]1CC[C@H](C)CC1` (single isomer, unassigned) [Example 23.69, 3-{6-(5-chloropyridin-3-yl)-8-[1-(2,6-difluorophenyl)-1-fluoroethyl]-7-[(trans-4-methylcyclohexyl)methyl]-7H-purin-2-yl}-1,2,4-oxadiazol-5(4H)-one]: 0.156 nM; `COC(C)(c1ccccc1F)c1nc2nc(-c3noc(=O)[nH]3)nc(-c3cncc(Cl)c3)c2n1C[C@H]1CC[C@H](C)CC1` (single isomer, unassigned) [Example 23.50, 3-{6-(5-chloropyridin-3-yl)-8-[1-(2-fluorophenyl)-1-methoxyethyl]-7-[(trans-4-methylcyclohexyl)methyl]-7H-purin-2-yl}-1,2,4-oxadiazol-5(4H)-one]: 6.55 nM. As for `COC(C)(c1c(F)cccc1F)c1nc2nc(-c3n[nH]c(=O)o3)nc(-c3cncc(Cl)c3)c2n1C[C@H]1CC[C@H](C)CC1` (single isomer, unassigned) [Example 23.89, 5-{6-(5-chloropyridin-3-yl)-8-[1-(2,6-difluorophenyl)-1-methoxyethyl]-7-[(trans-4-methylcyclohexyl)methyl]-7H-purin-2-yl}-1,3,4-oxadiazol-2(3H)-one], the IC50 amounted to 5.12 nM. Same read-out and setting: for `CC(O)(c1nc2nc(-c3n[nH]c(=O)o3)nc(-c3cccc(Cl)c3)c2n1C[C@H]1CC[C@H](C)CC1)C1CCCCC1` (mixture of isomers) [Example 23.11, 5-{6-(3-chlorophenyl)-8-(1-cyclohexyl-1-hydroxyethyl)-7-[(trans-4-methylcyclohexyl)methyl]-7H-purin-2-yl}-1,3,4-oxadiazol-2(3H)-one] the value was 214 nM; for `COC(c1nc2nc(-c3noc(=O)[nH]3)nc(-c3cncc(Cl)c3)c2n1C[C@H]1CC[C@H](C)CC1)C1CCOCC1` (mixture of isomers) [Example 23.18, 3-{6-(5-chloropyridin-3-yl)-8-[methoxy(tetrahydro-2H-pyran-4-yl)methyl]-7-[(trans-4-methylcyclohexyl)methyl]-7H-purin-2-yl}-1,2,4-oxadiazol-5(4H)-one], 24.1 nM. Still for that read-out and setting: next, `COC(C)(c1c(F)cccc1F)c1nc2nc(-c3n[nH]c(=O)o3)nc(-c3cncc(Cl)c3)c2n1C[C@H]1CC[C@H](C)CC1` (single isomer, unassigned) [Example 23.88, 5-{6-(5-chloropyridin-3-yl)-8-[1-(2,6-difluorophenyl)-1-methoxyethyl]-7-[(trans-4-methylcyclohexyl)methyl]-7H-purin-2-yl}-1,3,4-oxadiazol-2(3H)-one]: 0.598 nM; `CC(F)(c1ncccc1F)c1nc2nc(-c3n[nH]c(=O)o3)nc(-c3cncc(Cl)c3)c2n1C[C@H]1CC[C@H](C)CC1` (single isomer, unassigned) [Example 23.85, 5-{6-(5-chloropyridin-3-yl)-8-[1-fluoro-1-(3-fluoropyridin-2-yl)ethyl]-7-[(trans-4-methylcyclohexyl)methyl]-7H-purin-2-yl}-1,3,4-oxadiazol-2(3H)-one]: 0.359 nM; `COC(c1nc2nc(-c3n[nH]c(=O)o3)nc(-c3cncc(Cl)c3)c2n1C[C@H]1CC[C@H](C)CC1)C1CCCC1` (mixture of isomers) [Example 23.23, 5-{6-(5-chloropyridin-3-yl)-8-[cyclopentyl(methoxy)methyl]-7-[(trans-4-methylcyclohexyl)methyl]-7H-purin-2-yl}-1,3,4-oxadiazol-2(3H)-one]: 8.78 nM.

In turn, `COC1(c2nc3nc(-c4n[nH]c(=O)o4)nc(-c4cncc(Cl)c4)c3n2C[C@H]2CC[C@H](C)CC2)CCOc2cccnc21` (mixture of isomers) [Example 23.90, 5-{6-(5-chloropyridin-3-yl)-8-(4-methoxy-3,4-dihydro-2H-pyrano[3,2-b]pyridin-4-yl)-7-[(trans-4-methylcyclohexyl)methyl]-7H-purin-2-yl}-1,3,4-oxadiazol-2(3H)-one] registered an IC50 of 7.41 nM.

Consider `CC(F)(c1nc2nc(-c3n[nH]c(=O)o3)nc(-c3cncc(Cl)c3)c2n1C[C@H]1CC[C@H](C)CC1)C1CCCC1` (mixture of isomers) [Example 23.58, 5-{6-(5-chloropyridin-3-yl)-8-(1-cyclopentyl-1-fluoroethyl)-7-[(trans-4-methylcyclohexyl)methyl]-7H-purin-2-yl}-1,3,4-oxadiazol-2(3H)-one], for which the IC50 amounted to 1.95 nM.

On to `COC(c1nc2nc(-c3n[nH]c(=O)o3)nc(-c3cncc(Cl)c3)c2n1C[C@H]1CC[C@H](C)CC1)C1CCOCC1` (mixture of isomers) [Example 23.20, 5-{6-(5-chloropyridin-3-yl)-8-[methoxy(tetrahydro-2H-pyran-4-yl)methyl]-7-[(trans-4-methylcyclohexyl)methyl]-7H-purin-2-yl}-1,3,4-oxadiazol-2(3H)-one], for which the IC50 amounted to 27.6 nM. The same measure, in the same setting: next, `CC(c1ccccc1F)c1nc2nc(-c3n[nH]c(=O)o3)nc(-c3cncc(Cl)c3)c2n1C[C@H]1CC[C@H](C)CC1` (mixture of isomers) [Example 23.114, 5-{6-(5-chloropyridin-3-yl)-8-[1-(2-fluorophenyl)ethyl]-7-[(trans-4-methylcyclohexyl)methyl]-7H-purin-2-yl}-1,3,4-oxadiazol-2(3H)-one]: 2.13 nM; `COC(c1nc2nc(-c3noc(=O)[nH]3)nc(-c3cncc(Cl)c3)c2n1C[C@H]1CC[C@H](C)CC1)C1CCCC1` (mixture of isomers) [Example 23.61, 3-{6-(5-chloropyridin-3-yl)-8-[cyclopentyl(methoxy)methyl]-7-[(trans-4-methylcyclohexyl)methyl]-7H-purin-2-yl}-1,2,4-oxadiazol-5(4H)-one]: 4.64 nM.
